Measured values reported in article PMC6835155, “Lessons from LIMK1 enzymology and their impact on inhibitor design” (Biochemical Journal, 2019).
Read-outs that look alike come from different tables or passages of the source.

How the values were obtained:
[1] = target: T1, LIMK2KD (Homo sapiens, UniProt P53671); assay: Differential (dynamic) scanning fluorimetry (DSF) assay, LIMK2KD; type: binding; settings: for ΔTm at 10 µM: read-out: TM Shift LIMK2 (K)
T1 construct: The cDNA coding for LIMK2 residues 330 to 632 was PCR amplified; His6 (N, cleaved yes); made in house; host or cells: baculovirus; Sf9 for virus, TriEx insect cells for expression

[2] = target: T2, LIMK1KD (Homo sapiens, UniProt P53667); assay: Differential (dynamic) scanning fluorimetry (DSF) assay, LIMK1KD; type: binding; settings: for ΔTm at 10 µM: read-out: TM Shift LIMK1 (K)
T2 construct: His6 (N, cleaved yes); made in house; host or cells: baculovirus; Sf9 for virus, TriEx insect cells for expression

[3] = 2 µM LIMK1KD, compound 10 µM, single shot
[4] = LIMK2KD, compound 10 µM, single shot

T1 sequence (P53671 330-632): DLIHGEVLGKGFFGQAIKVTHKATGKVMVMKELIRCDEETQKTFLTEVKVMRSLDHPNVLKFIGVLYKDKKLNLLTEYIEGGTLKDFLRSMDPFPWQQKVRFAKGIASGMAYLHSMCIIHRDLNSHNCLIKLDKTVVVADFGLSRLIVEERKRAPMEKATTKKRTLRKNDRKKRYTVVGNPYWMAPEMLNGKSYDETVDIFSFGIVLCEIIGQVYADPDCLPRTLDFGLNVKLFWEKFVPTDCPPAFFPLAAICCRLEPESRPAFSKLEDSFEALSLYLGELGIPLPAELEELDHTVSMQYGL
T2 sequence (P53667 330-637): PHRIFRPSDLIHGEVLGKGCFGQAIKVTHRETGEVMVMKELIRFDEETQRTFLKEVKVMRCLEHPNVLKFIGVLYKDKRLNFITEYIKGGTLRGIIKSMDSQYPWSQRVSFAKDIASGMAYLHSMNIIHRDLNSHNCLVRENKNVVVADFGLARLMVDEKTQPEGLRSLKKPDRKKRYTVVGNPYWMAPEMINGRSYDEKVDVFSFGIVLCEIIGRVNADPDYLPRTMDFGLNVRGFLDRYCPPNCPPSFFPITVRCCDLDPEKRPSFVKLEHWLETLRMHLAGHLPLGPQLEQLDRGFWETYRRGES

Structure (SMILES)	ΔTm at 10 µM [2, 3]	TM Shift LIMK2 (K) [1, 4]	TM Shift LIMK1 (K) [2, 3]	ΔTm at 10 µM [1, 4]	also measured
CCOc1cc2ncc(C#N)c(Nc3ccc(OCc4ccccn4)c(Cl)c3)c2cc1NC(=O)/C=C/CN(C)C [Neratinib (HKI-272), Neratinib]	0.2 °C				ΔTm at 10 µM [1]: 1 °C
Nc1nccc(-c2c(-c3ccc(F)cc3)ncn2C2CCCCC2)n1 [PF-670462]		-0.2 K	1.5 K		
C[C@H]1[C@H](C)CC[C@]2(C(=O)O)CC[C@]3(C)C(=CC[C@@H]4[C@@]5(C)C[C@@H](O)[C@H](O)[C@@](C)(CO)[C@@H]5CC[C@]43C)[C@H]12 [Asiatic Acid]	-0.9 °C			1.7 °C	
N#Cc1ccc2[nH]c(O)c(-c3ccc(CN4CCOCC4)cn3)c2c1 [AZD1080]	0.5 °C			2.3 °C	
c1cncc(CN2CCC(n3ncc4c(N5CCOCC5)nc(-c5ccc6[nH]ccc6c5)nc43)CC2)c1 [WAY-600]		-0.2 K	-0.1 K		
Nc1nc(N)c2nc(-c3cccc(O)c3)cnc2n1 [TG100713]		0.7 K	1.4 K		
Cc1cc(O)c2c(c1)C(=O)c1cccc(O)c1C2=O [Chrysophanic Acid]	0.9 °C			1.3 °C	
CN1CCN(c2nc(C3=C(c4c[nH]c5ccccc45)C(=O)NC3=O)c3ccccc3n2)CC1 [Sotrastaurin]	0.6 °C			1.2 °C	
CNC(=O)c1ccc(C)c(-n2c(C)cc(OCc3ccc(F)cc3F)c(Br)c2=O)c1 [PH-797804]	1.3 °C			0.1 °C	
Oc1cccc(-c2nc(N3CCOCC3)c3oc4ncccc4c3n2)c1 [PI-103]	-1 °C			0.3 °C	
Cn1cc(-c2ccc3nnc(C(F)(F)c4ccc5ncccc5c4)n3n2)cn1 [JNJ-38877605]		-0.2 K	-0.1 K		
Cc1cc(C(=O)NOCCO)c(Nc2ccc(I)cc2F)n(C)c1=O [AZD8330]	0.3 °C			0.2 °C	
O=C(O)c1ccc(-c2c[nH]c3ncc(-c4ccccc4)cc23)cc1C1CCCC1 [GSK650394]	1.4 °C			-0.2 °C	
Cc1cc(Nc2cc(CN3CCOCC3)c3nc(C)c(Cc4ccc(Cl)cc4F)n3n2)n[nH]1 [LY2784544]	5 °C				TM Shift LIMK2 (K) ([1]; LIMK2KD, compound 10 µM, single shot, 10 µM): 1.1 K
COc1ccc(S(=O)(=O)N(C(C)=O)c2ccccc2/C=C/c2cc[n+]([O-])cc2)cc1 [HMN-214]	2.5 °C			1 °C	
CC(C)(C)c1cc(C=C(C#N)C#N)cc(Br)c1O [AG-1024]		4.3 K	2.5 K		
NC(=O)Nc1sc(-c2ccc(F)cc2)cc1C(N)=O [TPCA-1]		3.6 K	2.8 K		
Cc1cc(Nc2cc(CN3CCOCC3)c3nc(C)c(Cc4ccc(Cl)cc4F)n3n2)n[nH]1 [Gandotinib]			5.4 K		TM Shift LIMK2 (K) ([1]; LIMK2KD, compound 10 µM, single shot, listed as gandotinib, 10 µM): −0.5 K
CCN1CCN(C(=O)Cc2ccc(Nc3ncc(F)c(Nc4ccc(C(=O)Nc5ccccc5Cl)cc4)n3)cc2)CC1 [Aurora A Inhibitor I]		3.7 K	4.9 K		
COc1cc2c(Oc3ccc(NC(=O)C4(C(=O)Nc5ccc(F)cc5)CC4)cc3F)ccnc2cc1OCCCN1CCOCC1 [Foretinib (GSK1363089), Foretinib]	1.9 °C			-0.4 °C	
CN1CCN(CCOc2cc(OC3CCOCC3)c3c(Nc4c(Cl)ccc5c4OCO5)ncnc3c2)CC1 [Saracatinib (AZD0530), Saracatinib]	1.2 °C			0.8 °C	
O=C1NC(=O)/C(=C/c2ccc3c(c2)OC(F)(F)O3)S1 [AS-604850]		2.2 K	0.3 K		
Cc1ccc(C(=O)Nc2ccc(CN3CCN(C)CC3)c(C(F)(F)F)c2)cc1C#Cc1cnc2cccnn12 [Ponatinib (AP24534), Ponatinib]	5 °C			4.6 °C	
O=C(c1ccc(/C=C/c2n[nH]c3ccccc23)cc1)N1CCNCC1 [KW-2449]	1.7 °C			0.8 °C	
Cc1ccc(-c2nn(C(C)(C)C)c3ncnc(N)c23)cc1 [PP1]		0.0 K	2.0 K		

Structure (SMILES)	ΔTm at 10 µM [2, 3]	TM Shift LIMK2 (K) [1, 4]	TM Shift LIMK1 (K) [2, 3]	ΔTm at 10 µM [1, 4]	also measured
O=P(O)(O)C(O)(Cn1ccnc1)P(=O)(O)O [Zoledronic Acid]	-0.7 °C			1.3 °C	
O=C1NC(=O)C(c2ccccc2[N+](=O)[O-])=C1Nc1ccc(O)c(Cl)c1 [SB415286]		0.9 K	1.7 K		
C[C@@H]1CN(CC(=O)Nc2ccc3c(c2)Cc2cccc(-c4cc(=O)cc(N5CCOCC5)o4)c2S3)C[C@H](C)O1 [KU-60019]	0.5 °C			0.6 °C	
CC(C)CC(=O)Nc1[nH]nc2c1CN(C(=O)C1CCN(C)CC1)C2(C)C [PHA-793887]	1 °C			4.1 °C	
CC1(COc2ccc3c(c2)ncn3-c2ccc3cccc(N4CCC(N)CC4)c3n2)COC1 [Crenolanib (CP-868596), Crenolanib]	1 °C			0.5 °C	
NC(=O)c1cccc(-c2cc(Nc3ccc(OC(F)(F)F)cc3)ncn2)c1 [GNF-2]		0.9 K	-1.0 K		
C=CCc1ccc(O)c(-c2ccc(O)c(CC=C)c2)c1 [Honokiol]	0.9 °C			1.7 °C	
CNC(=O)c1nn(C)c2c1C(C)(C)Cc1cnc(Nc3ccc(N4CCN(C)CC4)cc3)nc1-2 [Milciclib (PHA-848125), Milciclib]	0.2 °C			0.6 °C	
Cc1nc(NC(=O)N2CCC[C@H]2C(N)=O)sc1-c1ccnc(C(C)(C)C(F)(F)F)c1 [BYL719]	-0.5 °C			-0.2 °C	
Cl.Cl.NC1(c2ccc(-c3nc4ccn5c(=O)[nH]nc5c4cc3-c3ccccc3)cc2)CCC1 [MK-2206 2HCl]		-1.1 K	0.4 K		
Cc1ccc(NC(=O)c2ccc(CN3CCN(C)CC3)cc2)cc1Nc1nc(-c2cccnc2)cs1 [Masitinib (AB1010), Masitinib]	0.4 °C			0 °C	
C1=C/COCc2cc(ccc2OCCN2CCCC2)Nc2nccc(n2)-c2cccc(c2)COC/1 [Pacritinib (SB1518), Pacritinib]	1.6 °C			1.5 °C	
CNc1nc(-c2ccc3c(N)n[nH]c3c2)cc(N2C[C@@H](C(=O)NC3CCCCC3)CC[C@H]2C)n1 [GSK2334470]	0.5 °C			1.1 °C	
Oc1ccc(Nc2nc(-c3ccc(Cl)cc3)cs2)cc1 [SKI II]		1.4 K	-0.4 K		
CCCS(=O)(=O)Nc1ccc(F)c(C(=O)c2c[nH]c3ncc(Cl)cc23)c1F [PLX-4720]	2.5 °C			3.8 °C	
Oc1c2ccccc2c2c3c(cccc13)N=N2 [SP600125]	1 °C			2.1 °C	
CC(C)(C)c1cnc(CSc2cnc(NC(=O)C3CCNCC3)s2)o1 [SNS-032 (BMS-387032)]	0.1 °C			-0.3 °C	
COc1cc(F)c(F)c(Nc2ccc(I)cc2F)c1NS(=O)(=O)C1(C[C@H](O)CO)CC1 [Refametinib]	-1 °C			1.1 °C	
COc1ccc2cc(-c3nc(-c4ccc([S+](C)[O-])cc4)[nH]c3-c3ccncc3)ccc2c1 (stereo not shown) [Tie2 kinase inhibitor]		1.4 K	1.3 K		
CN[C@@H]1C[C@H]2O[C@@](C)([C@@H]1OC)n1c3ccccc3c3c4c(c5c6ccccc6n2c5c31)C(=O)NC4 [Staurosporine]	5.1 °C				ΔTm at 10 µM [1]: 3.3 °C
Cn1cc(-c2cnn3c(N)c(Br)c([C@@H]4CCCNC4)nc23)cn1 [MK-8776 (SCH 900776)]					ΔTm at 10 µM [1]: 2.2 °C; ΔTm at 10 µM [2]: 1.8 °C
C[C@H](Nc1ncnc2nc[nH]c12)c1cc2cccc(Cl)c2c(=O)n1-c1ccccc1 [IPI-145 (INK1197)]	-1.5 °C			-0.6 °C	
Nc1cccc(-c2cc3c(Oc4cccc(O)c4)ncnc3[nH]2)c1 [TWS119]		4.1 K	5.2 K		
CCN(CC)CCCCNc1ncc2cc(-c3cc(OC)cc(OC)c3)c(NC(=O)NC(C)(C)C)nc2n1 [PD173074]	1.1 °C			1.2 °C	
Cc1ncc(-c2ccnc(Nc3ccc(S(C)(=O)=O)cc3)n2)n1C(C)C [AZD5438]	4.4 °C			1.7 °C	
